Read-outs that look alike come from different tables or passages of the source.
Target: T1, Drosophila OR47a (Drosophila melanogaster, UniProt P81921)
T1 construct: expressed in transfected cells
T1 sequence (P81921 1-385): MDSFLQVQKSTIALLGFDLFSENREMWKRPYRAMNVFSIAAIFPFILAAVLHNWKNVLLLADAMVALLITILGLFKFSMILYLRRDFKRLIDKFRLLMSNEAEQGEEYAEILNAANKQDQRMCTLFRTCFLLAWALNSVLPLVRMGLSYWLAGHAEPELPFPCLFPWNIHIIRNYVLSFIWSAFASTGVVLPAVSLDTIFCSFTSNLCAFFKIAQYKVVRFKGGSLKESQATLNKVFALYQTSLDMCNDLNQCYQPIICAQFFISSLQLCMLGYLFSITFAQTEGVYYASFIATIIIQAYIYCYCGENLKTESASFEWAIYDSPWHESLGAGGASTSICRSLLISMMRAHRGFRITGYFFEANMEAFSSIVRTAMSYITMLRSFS
T1 sequence (Q9VNB5 1-486 partner): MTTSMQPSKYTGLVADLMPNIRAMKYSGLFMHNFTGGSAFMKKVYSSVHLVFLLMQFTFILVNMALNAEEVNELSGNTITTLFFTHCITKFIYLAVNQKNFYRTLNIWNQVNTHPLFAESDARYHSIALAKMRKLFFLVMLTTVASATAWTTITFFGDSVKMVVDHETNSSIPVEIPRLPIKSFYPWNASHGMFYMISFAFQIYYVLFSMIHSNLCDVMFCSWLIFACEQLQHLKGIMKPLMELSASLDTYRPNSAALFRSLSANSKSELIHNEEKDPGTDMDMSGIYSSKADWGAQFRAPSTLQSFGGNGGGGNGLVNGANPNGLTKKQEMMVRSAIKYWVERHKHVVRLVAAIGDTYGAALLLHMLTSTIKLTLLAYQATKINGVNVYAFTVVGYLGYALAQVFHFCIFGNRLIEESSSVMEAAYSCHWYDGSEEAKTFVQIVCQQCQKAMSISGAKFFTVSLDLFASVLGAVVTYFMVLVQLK
Experiment: Calcium ion fluorescence (GCaMP6) assay, OR47a stable HEK293 cell line
Type: cell-based
Design: key to DF norm AVERAGE OR47a: VOC ∆F divided by the plate's mean ∆F response to 50 µM VUAA1
Settings: for Average response / OR47a response (VUAA1-normalized) at 1 μM / OR47a response (VUAA1-normalized) at 10 μM / OR47a response (VUAA1-normalized) at 100 μM: OR47a cell line; for Average response: mean of biological replicates; for OR47a Average response (VUAA1-normalized): 50 μM VUAA1 = 1
Method: These VUAA1 normalized ∆F values were used to compare the different receptors and ligands.
The concentration-dependent effect of the reference ligands on their cognate cell lines was examined in more detail. Twelve different ligand concentrations were measured on each cell line in an overall 0.01 μM to 100 μM concentration range with 5 repetitions with three technical replicates each time.
Twelve thousand to 18,000 cells were plated into each well of a black wall, transparent bottom 384-well microplate (Greiner) 48 h or 72 h before the measurements and were simultaneously treated with 1 μg/mL doxycycline. […] The plate has 24 columns, thus we could record responses in up to eight different cell lines in each plate. On the day of the experiment, the growth medium was replaced with 20 µL assay buffer/well (140 mM NaCl, 5 mM KCl, 2 mM CaCl2, 1 mM MgCl2, 5 mM HEPES-Na, 20 mM glucose, pH 7.3, 340 mOsm). […] Baseline fluorescence (F0) was recorded for 5 s, after which 7 µL VOC buffer (140 mM NaCl, 5 mM KCl, 2 mM CaCl2, 1 mM MgCl2, 5 mM HEPES-Na, 31 mM glucose, 0.1% DMSO, pH 7.3, 340 mOsm) was injected into each well in one row and the fluorescence response was recorded for an additional 30 s, at a rate of one read/sec. VOC solutions (VOC buffer with 4× concentration of the final measured VOC concentration, 9 µL/well was injected) were measured on the same wells in a second round with the same protocol. Each individual concentration of a specific VOC sample was recorded in three wells for the same cell line on the same microplate. The raw data were exported in xls file format, F0 and FMAX values, and the fluorescence intensity changes (∆F) were calculated in Excel (Microsoft) (Supplementary file Data summary.xlsx) using the following equation: ΔF=FMAX-F0/F0 (see also Fig. 1C). On each plate, we recorded the response of each cell line to 50 µM VUAA1. The average of these ∆F values of each cell line were used to calculate the VUAA1-normalized values for the rest of the plate, by dividing VOC response ∆F values by the average VUAA1 response ∆F value of the corresponding OR cell line. Each VOC-OR combination was measured three times as technical replicates. […] The average of these replicates were used as one ∆F and VUAA1-normalized ∆F in the following analysis.
In the next rows we tested the reference VOCs (or other VOCs known to activate the corresponding cell lines), in order to test if all cell lines are responsive. The remaining rows were used to test VOCs with unknown effect.
The recorded FMAX, F0, ∆F, VUAA1-normalized ∆F values, as well as the OR name, the name of the tested sample, and the final concentration for each well were copied into supplementary file Data summary.xlsx, that was used to summarize all the plates recorded. Here, the averages of the measurements were calculated for each receptor-VOC-concentration combination.

[1] = HEK293, read-out: OR47a response (VUAA1-normalized response)
[2] = concentration 1, normalized fluorescence change, values below 0.05 threshold given as 0
[3] = concentration 10, normalized fluorescence change, values below 0.05 threshold given as 0
[4] = concentration 100, normalized fluorescence change, values below 0.05 threshold given as 0
[5] = ligand concentration 1 (unit not given), 0.05 threshold, values below shown as 0
[6] = ligand concentration 10 (unit not given), 0.05 threshold, values below shown as 0
[7] = ligand concentration 100 (unit not given), 0.05 threshold, values below shown as 0
[8] = HEK293, read-out: OR47a Average response (VUAA1-normalized)
[9] = ligand concentration 1 (unit not given), threshold 0.05, below shown as 0
[10] = ligand concentration 10 (unit not given), threshold 0.05, below shown as 0
[11] = ligand concentration 100 (unit not given), threshold 0.05, below shown as 0

Compound | Average response (odorant cc. 1 µM) | Average response (odorant cc. 10 µM) | Average response (odorant cc. 100 µM) | DF norm AVERAGE OR47a [2] | DF norm AVERAGE OR47a [3] | DF norm AVERAGE OR47a [4] | OR47a response (VUAA1-normalized) at 1 μM (VOC concentration 1 μM) | OR47a response (VUAA1-normalized) at 10 μM (VOC concentration 10 μM) | OR47a response (VUAA1-normalized) at 100 μM (VOC concentration 100 μM) | DF norm AVERAGE OR47a [5] | DF norm AVERAGE OR47a [6] | DF norm AVERAGE OR47a [7] | further results
COc1cccc(OC)c1 [1,3-dimethoxy benzene] | 0.00 | 0.00 | 0.0217 | 0 | 0 | 0 |  |  |  |  |  |  | activation at 1 µM [1]: 0%; activation at 10 µM [1]: 0%; activation at 100 µM [1]: 0%
CC1=CCC[C@@]2(C)[C@@H]3CC[C@]12CC3(C)C [(−)-α-neoclovene] | 0.00 | 0.00 | 0.018 | 0 | 0 | 0 |  |  |  |  |  |  | OR47a response (VUAA1-normalized response) (VOC concentration 1 μM): 0.00; OR47a response (VUAA1-normalized response) (VOC concentration 10 μM): 0.00; OR47a response (VUAA1-normalized response) (VOC concentration 100 μM): 0.00
CCCCCCCCCCC [undecane] | 0.00 | 0.00 | 0.00 |  |  |  | 0.00 | 0.00 | 0.00 | 0 | 0 | 0 | 
CCCC(O)CC (stereo not drawn) [3-hexanol] | 0.00 | 0.00 | 0.11 | 0 | 0 | 0.1087 |  |  |  |  |  |  | activation at 1 µM [8]: 0%; activation at 10 µM [8]: 0%; activation at 100 µM [8]: 11%; activation at 1 µM [1]: 0%; activation at 10 µM [1]: 0%; activation at 100 µM [1]: 11%
C=C(C)C1CCC2(C)OC2C1 (single isomer, unassigned; (+)) [(+)-limonene oxide] | 0.00 | 0.00 | 0.00 | 0 | 0 | 0 |  |  |  |  |  |  | OR47a response (VUAA1-normalized response) (VOC concentration 1 μM): 0.00; OR47a response (VUAA1-normalized response) (VOC concentration 10 μM): 0.00; OR47a response (VUAA1-normalized response) (VOC concentration 100 μM): 0.00
CC/C=C\CCO [Z3-hexenol] | 0.0266 | 0.0571 | 0.10 |  |  |  |  |  |  | 0 | 0.0571 | 0.1005 | OR47a Average response (VUAA1-normalized) (1 μM VOC): 0.03; OR47a Average response (VUAA1-normalized) (10 μM VOC): 0.06; OR47a Average response (VUAA1-normalized) (100 μM VOC): 0.10
Cc1ccc(C)cc1 [p-xylene] | 0.00 | 0.00 | 0.0271 |  |  |  | 0.00 | 0.00 | 0.00 |  |  |  | DF norm AVERAGE OR47a [9]: 0; DF norm AVERAGE OR47a [10]: 0; DF norm AVERAGE OR47a [11]: 0
CCc1ccccc1 [ethylbenzene] | 0.0189 | 0.0233 | 0.00 |  |  |  |  |  |  |  |  |  | activation at 1 µM [1]: 0%; activation at 10 µM [1]: 0%; activation at 100 µM [1]: 0%; DF norm AVERAGE OR47a [9]: 0; DF norm AVERAGE OR47a [10]: 0; DF norm AVERAGE OR47a [11]: 0
CCCCCC(=O)CC [3-octanone] | 0.0745 | 0.16 | 0.73 | 0.07449 | 0.1581 | 0.7333 |  |  |  |  |  |  | activation at 1 µM [8]: 7%; activation at 10 µM [8]: 16%; activation at 100 µM [8]: 73%; activation at 1 µM [1]: 7.45%; activation at 10 µM [1]: 16%; activation at 100 µM [1]: 73%
CC/C=C\CCOC(C)=O [z3-hexenyl acetate] | 0.35 | 0.67 | 0.76 |  |  |  |  |  |  | 0.3542 | 0.669 | 0.7586 | activation at 1 µM [8]: 35%; activation at 10 µM [8]: 67%; activation at 100 µM [8]: 76%
Cc1ccccc1 [toluene] | 0.00 | 0.0267 | 0.00 |  |  |  | 0.00 | 0.00 | 0.00 | 0 | 0 | 0 | 
(+)-beta-cedrene | 0.00 | 0.00 | 0.00 | 0 | 0 | 0 |  |  |  |  |  |  | OR47a response (VUAA1-normalized response) (VOC concentration 1 μM): 0.00; OR47a response (VUAA1-normalized response) (VOC concentration 10 μM): 0.00; OR47a response (VUAA1-normalized response) (VOC concentration 100 μM): 0.00
Cc1ccccc1C [o-xylene] | 0.00 | 0.00 | 0.00 |  |  |  | 0.00 | 0.00 | 0.00 |  |  |  | DF norm AVERAGE OR47a [9]: 0; DF norm AVERAGE OR47a [10]: 0; DF norm AVERAGE OR47a [11]: 0
CCCCCCCCCCCCCC [tetradecane] | 0.02 | 0.03 | 0.00 |  |  |  | 0.00 | 0.00 | 0.00 | 0 | 0 | 0 | 
Cc1cccc(C)c1 [m-xylene] | 0.00 | 0.00 | 0.00 |  |  |  | 0.00 | 0.00 | 0.00 |  |  |  | DF norm AVERAGE OR47a [9]: 0; DF norm AVERAGE OR47a [10]: 0; DF norm AVERAGE OR47a [11]: 0
